Measurements reported in patent publication US20240317722A1, “HETEROARYL-3-PIPERIDINEDIONE COMPOUND AND USE THEREOF” (Medshine Discovery Inc., priority 2021, published 2024).

What was measured:
[1] = test system: MDA-MB-231; assay: Anti-proliferative effect in MDA-MB-231 (CellTiter-Glo); assay type: cell-based, human; details: MDA-MB-231, 3 days
Experimental: This assay studied the inhibitory effect of the compounds on cell proliferation by detecting the effect of the test compounds on the in vitro activity of tumor cells MV4-11 and MDA-MB-231.
The tumor cell lines were cultured in an incubator at 37° C., 5% CO2 or 0% CO2according to the above culture conditions. The cells were periodically passaged, and cells in logarithmic growth phase were taken for plating. • 2. Cell plating • (1). Cells were stained with trypan blue and viable cells were counted. • (2).
• (3). 90 μL of cell suspension was added to each well of the culture plate, and culture medium without cells was added to the blank control well. • (4). The plate was incubated overnight in an incubator at 37° C., 5% CO2 or 0% CO2, and 100% relative humidity. • 3. Preparation of a compound storage plate
Preparation of a 400× compound storage plate: The compounds were diluted with DMSO in a gradient from the highest concentration to the lowest concentration. The plates were prepared freshly at each time for use. • 4. Preparation of 10× compound working solution and treatment of cells with compounds • (1). Preparation of 10× compound working solution: compound or DMSO was added, and the well content was mixed to uniform by aspiration and expelling with pipette. 78 μL of cell culture medium was added to a 96-well plate with a V-shaped bottom. 2 μL of the compound from the 400× compound storage plate was added to the cell culture medium in the 96-well plate. 2 μL of DMSO was added to the vehicle control and the blank control. After adding compound or DMSO, the well content was mixed to uniform by aspiration and expelling with pipette. • (2). Dosing: 10 μL of 10× compound working solution was added to the cell culture plate. 10 μL of DMSO-cell culture mix solution was added to the vehicle control and blank control. • (3). The 96-well cell plate was placed back into the incubator and cultured for 3 days. • 5. CellTiter-Glo luminescence cell viability detection
The following steps were performed according to the instruction of Promega CellTiter-Glo luminescence cell viability detection kit (Promega-G7573). • (1). The CellTiter-Glo buffer was thawed and allowed to stand to reach room temperature; • (2). CellTiter-Glo substrate was allowed to stand to reach room temperature; • (3). 10 mL of CellTiter-Glo buffer was added to CellTiter-Glo substrate in a bottle to dissolve the substrate to formulate CellTiter-Glo working solution; • (4). The working solution was vortexed slowly for fully dissolution; • (5). The cell culture plates were taken out and allowed to stand for 30 minutes to equilibrate to room temperature; • (6). 50 μL (equal to half the volume of cell culture solution in each well) of Cell Titer-Glo working solution was added into each well. The cell plate was wrapped with aluminum foil to protect the cell plate from light; • (7). The culture plates were shaken on an orbital shaker for 2 minutes to induce cell lysis; • (8). The culture plates were left at room temperature for 10 minutes to stabilize the luminescence signal; • (9). The luminous signal was detected on the 2104 En Vision plate reader. • 6. Data analysis
The following formula was used to calculate the inhibition rate (IR) of the test compounds: IR (%)=(RLU of the vehicle control−RLU of the compound)/(RLU of the vehicle control−RLU of the blank control)*100%. The inhibition rates of the compounds at different concentrations were calculated in Excel, and then GraphPad Prism software was used to graph the inhibition curves and calculate the relevant parameters, including the minimum inhibition rate, maximum inhibition rate and IC50.

[2] = target: GSPT1 (Homo sapiens, UniProt P15170+Q96SW2); assay: Target protein degradation in HEK293T-LgBiT_GSPT1-nHiBiT cells (HiBiT luminescence); assay type: cell-based; set-up: expressed in transfected cells; details: 16 to 18 hours; for Dmax: read-out: Max. DR (maximum degradation rate)
GSPT1, sequence (P15170 whole entry): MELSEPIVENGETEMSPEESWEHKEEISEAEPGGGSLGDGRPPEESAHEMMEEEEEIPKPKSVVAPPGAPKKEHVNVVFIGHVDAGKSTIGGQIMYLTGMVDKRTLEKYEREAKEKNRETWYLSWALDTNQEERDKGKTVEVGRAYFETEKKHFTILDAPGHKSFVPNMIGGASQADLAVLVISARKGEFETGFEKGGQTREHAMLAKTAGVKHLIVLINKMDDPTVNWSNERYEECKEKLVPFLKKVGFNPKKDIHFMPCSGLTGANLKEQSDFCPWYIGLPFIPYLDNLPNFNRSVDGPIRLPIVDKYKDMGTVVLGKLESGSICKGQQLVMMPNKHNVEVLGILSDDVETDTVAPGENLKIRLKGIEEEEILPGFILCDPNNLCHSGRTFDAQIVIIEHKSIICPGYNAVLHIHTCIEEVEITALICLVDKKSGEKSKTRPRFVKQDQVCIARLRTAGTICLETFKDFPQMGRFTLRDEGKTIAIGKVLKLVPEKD
GSPT1, sequence (Q96SW2 whole entry): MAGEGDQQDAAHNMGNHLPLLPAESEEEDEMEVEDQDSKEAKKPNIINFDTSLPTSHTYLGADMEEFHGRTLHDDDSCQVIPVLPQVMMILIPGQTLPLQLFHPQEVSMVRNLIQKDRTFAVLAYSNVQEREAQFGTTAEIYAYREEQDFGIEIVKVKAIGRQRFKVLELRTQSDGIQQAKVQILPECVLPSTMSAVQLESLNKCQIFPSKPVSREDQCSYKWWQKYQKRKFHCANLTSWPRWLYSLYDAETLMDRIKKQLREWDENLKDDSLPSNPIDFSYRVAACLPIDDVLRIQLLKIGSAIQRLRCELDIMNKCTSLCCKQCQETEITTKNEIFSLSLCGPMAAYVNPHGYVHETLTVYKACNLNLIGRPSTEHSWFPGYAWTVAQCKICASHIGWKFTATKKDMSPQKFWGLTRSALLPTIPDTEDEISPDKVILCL
GSPT1, sequence (Q16531 whole entry partner): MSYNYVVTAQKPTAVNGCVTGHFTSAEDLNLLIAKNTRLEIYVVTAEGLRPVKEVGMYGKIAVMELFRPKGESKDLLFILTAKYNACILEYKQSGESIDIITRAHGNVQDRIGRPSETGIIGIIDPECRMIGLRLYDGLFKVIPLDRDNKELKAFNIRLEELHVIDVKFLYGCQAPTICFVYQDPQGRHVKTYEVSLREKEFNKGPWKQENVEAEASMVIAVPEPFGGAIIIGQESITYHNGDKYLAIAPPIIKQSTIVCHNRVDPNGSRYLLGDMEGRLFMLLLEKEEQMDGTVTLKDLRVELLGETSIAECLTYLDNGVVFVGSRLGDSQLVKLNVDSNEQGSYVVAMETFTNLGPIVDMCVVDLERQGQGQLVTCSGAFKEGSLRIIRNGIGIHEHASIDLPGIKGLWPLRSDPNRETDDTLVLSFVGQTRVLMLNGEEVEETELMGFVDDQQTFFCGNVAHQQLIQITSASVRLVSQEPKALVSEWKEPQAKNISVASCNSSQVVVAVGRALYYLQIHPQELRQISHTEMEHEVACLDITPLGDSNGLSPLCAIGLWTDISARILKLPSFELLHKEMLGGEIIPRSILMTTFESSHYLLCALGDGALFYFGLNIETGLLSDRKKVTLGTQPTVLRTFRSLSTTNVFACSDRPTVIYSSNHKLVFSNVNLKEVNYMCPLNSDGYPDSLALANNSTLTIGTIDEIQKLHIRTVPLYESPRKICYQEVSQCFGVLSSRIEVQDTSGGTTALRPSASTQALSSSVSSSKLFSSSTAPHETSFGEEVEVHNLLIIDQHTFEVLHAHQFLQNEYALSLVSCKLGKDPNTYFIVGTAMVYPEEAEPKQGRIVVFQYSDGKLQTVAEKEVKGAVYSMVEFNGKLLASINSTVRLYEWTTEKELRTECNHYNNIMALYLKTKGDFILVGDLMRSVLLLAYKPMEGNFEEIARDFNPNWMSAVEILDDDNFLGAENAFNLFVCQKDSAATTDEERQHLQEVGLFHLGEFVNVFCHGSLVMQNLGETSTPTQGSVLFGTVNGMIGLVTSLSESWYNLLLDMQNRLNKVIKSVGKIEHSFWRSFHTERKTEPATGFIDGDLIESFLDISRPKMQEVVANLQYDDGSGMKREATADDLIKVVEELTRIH
Experimental: This assay was performed to detect the degradation effect of the test compound on the target protein GSPT1 in HEK293T-LgBiT cells.
• 1. Preparation of compounds • (1). Dissolving the powder of the test compound with DMSO to 10 mM as the storage concentration, and using a pipette to manually draw 9 μL of 10 mM or 3 mM test compound to columns 1 and 13 of a LDV plate; • (2). Using multidrop Combi to add 6 μL of DMSO to columns 2-12 and 14-24; • (3). Using Bravo to dilute the test compound 3 times (3 μL+6 μL) from columns 1 to 11 and 13 to 23; • (4). According to the layout of the plate, using Echo to transfer 25 nL of compound solution (columns 1-24 of the LDV plate) to the assay plate; • (5). Using Echo to transfer 25 nL of 1 mM positive control solution to the assay plate as a 100% degradation control (i.e. LC, HPE), and to transfer 25 nL of DMSO to the assay plate as a 0% control (i.e. HC, ZPE). • 2. Cell plating • (1). Discarding the cell culture medium, and washing the cells once with DPBS; then the cells were trypsinized, counted, and used to prepare a cell suspension of 4×10^5 cells/mL; • (2). Using MultiDrop Combi to add 25 μL/well of cell suspension at medium speed to the assay plate containing the test compound; • (3). Putting the assay plate containing cells back into the incubator and culturing it at 37° C. and 5% CO2 for 16 to 18 hours.
• (1). Using MultiDrop Combi to add 25 μL/well of detection reagent (NanoGlo lysis solution+substrate+LgBit protein) to the assay plate at high speed, and shaking for 10 minutes; • (2). Centrifuging at 2000 rpm×1 min to remove bubbles; • (3). Reading the plate using Envision, US Luminescence detection method.
The following formula was used to calculate the degradation rate (DR) of the test compound: DR (%)=(RLU of vehicle control−RLU of compound)/(RLU of vehicle control−RLU of positive control)*100%, wherein the vehicle control was a blank control. The degradation rates of compounds at different concentrations were calculated in Excel, and then XLFit software was used to obtain inhibition curves and to calculate relevant parameters, including the minimum degradation rate, maximum degradation rate and DC50.

IC50 ([1]; Homo sapiens, 72 h) [nM]	DC50 [2] [nM]	Dmax [2] [%]	Compound	Max. IR (maximum inhibition rate) [1] [%]
4.7	2.51	100	COCCOc1cc(NC(=O)NCc2ccc3c(C4CCC(=O)NC4=O)coc3c2)cc(Cl)c1C (stereo not drawn) [WX005]	80.7
	1.07	100	COCCOc1cc(NC(=O)NCc2ccc3c(C4CCC(=O)NC4=O)noc3c2)cc(Cl)c1C (stereo not drawn) [WX013]	
